Assay results as given in patent US20220402900A1, “1,2,4-OXADIAZOL-5-ONE DERIVATIVES FOR THE TREATMENT OF CANCER” (Basilea Pharmaceutica International AG, priority 2019, published 2022).

Legend:
[1] = test system: TEAD reporter gene activity; test: TEAD reporter gene assay (MCF7 TEAD reporter cell line); assay type: cell-based; settings: Homo sapiens; TEAD luciferase reporter in MCF7 cells, 24 hours; read-out: IC50 TEAD RGA (converted)
Text: A TEAD reporter cell line was purchased from BPS Bioscience (cat. no. 60618). It contains the firefly luciferase gene under control of TEAD responsive elements stably integrated into the human breast cancer MCF7 cells. In proliferating cells, a basal level of unphosphorylated YAP/TAZ resides in the nucleus and drives the TEAD-dependent expression of the luciferase reporter. The cells were cultivated as recommended by the supplier. Inhibition of TEAD reporter gene activity by experimental compounds was measured using white, clear-bottom, 96 well cell culture plates (Greiner Bio-One, cat. no. 655098). The cells were seeded at a density of 20,000 cells per well in 100 μL growth medium and the plates were incubated overnight at 37° C. with 5% CO2 prior to treatment. Experimental compounds were serially diluted in DMSO to 200× the desired final concentrations. 0.5 μL aliquots of DMSO or the test samples were then mixed into the wells and the cells were further incubated for 24 hours. Luminescence was then measured on a Synergy 4 reader (BioTek) using the ONE-Glo Luciferase Assay System (Promega, cat. no. E6120) according to the manufacturer's instructions. Relative inhibition values were calculated by normalizing the raw data using DMSO-treated cells (0% inhibition) and wells devoid of cells (100% inhibition). IC50 values were calculated by fitting concentration-response data to a sigmoidal 4-parameter logistic model.

[2] = biological target: T1, human TEAD2 (amino acids 217-447) (Homo sapiens, UniProt Q15562); test: Thermal shift assay (TSA); assay type: binding; settings: 3 μM recombinant TEAD2, compound 7 μM, shift vs DMSO control
T1 construct: human TEAD2 (amino acids 217-447); His-tag (N); purchased Proteros biostructures PR-0365; host or cells: E. coli
Experimental: The thermal shift assay (TSA) was utilized to characterize target engagement in vitro based on ligand-dependent thermal stabilization of the protein. N-terminally His-tagged human TEAD2 (amino acids 217-447) expressed and purified from E. coli was purchased from Proteros biostructures (cat no. PR-0365). The melting reactions were performed in white, 96 well qPCR plates (Roche Diagnostics, cat. no. 04 729 692 001) in 20 mM HEPES pH 7, 100 mM NaCl in the presence of 4×SYPRO orange (Sigma, cat. no. S5692). Each well contained 3 μM recombinant TEAD2 and either DMSO (control) or experimental compounds at a final concentration of 7 μM. The total volume was 20 μL and the final DMSO concentration was 1%. The plate was sealed and analyzed in a LightCycler 480 II (Roche Diagnostics) by continuously reading the fluorescence using the 465-580 nm filter set while heating from 25° C. to 95° C. using a linear gradient of 1° C./min. Melting temperatures were determined by numerical differentiation using the LightCycler Thermal Shift Analysis software (Roche Diagnostics). The shifts in melting temperature caused by experimental compounds compared to the control are expressed as ΔTm (Table 2).

T1 sequence (Q15562 217-447): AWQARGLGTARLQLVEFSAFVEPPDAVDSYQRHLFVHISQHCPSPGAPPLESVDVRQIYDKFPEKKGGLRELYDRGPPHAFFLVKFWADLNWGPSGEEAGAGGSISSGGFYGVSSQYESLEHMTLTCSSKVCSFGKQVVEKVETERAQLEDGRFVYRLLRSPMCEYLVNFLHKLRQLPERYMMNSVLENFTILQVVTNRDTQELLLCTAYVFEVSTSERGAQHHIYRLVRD

SMILES	IC50 [1]	ΔTm at 7 µM [2]
CC(=O)Nc1cnc(Nc2ccc(C(F)(F)F)cc2)c(-c2noc(=O)[nH]2)n1 [Example 35, N-[6-(5-oxo-4H-1,2,4-oxadiazol-3-yl)-5-[4-(trifluoromethyl)anilino]pyrazin-2-yl]acetamide]	3.83 µM	2.5 °C
Nc1cnc(-c2noc(=O)[nH]2)c(Nc2ccc(C(F)(F)F)cc2)n1 [Example 36, 3-[5-amino-3-[4-(trifluoromethyl)anilino]pyrazin-2-yl]-4H-1,2,4-oxadiazol-5-one]	0.149 µM	3.5 °C
O=c1[nH]c(-c2nc3ccccc3nc2Nc2ccc(C(F)(F)F)cc2)no1 [Example 37, 3-[3-[4-(trifluoromethyl)anilino]quinoxalin-2-yl]-4H-1,2,4-oxadiazol-5-one]	0.188 µM	12.1 °C
O=c1[nH]c(-c2nccnc2Nc2ccc(C3CC3)cc2)no1 [Example 39, 3-[3-(4-cyclopropylanilino)pyrazin-2-yl]-4H-1,2,4-oxadiazol-5-one]	2.82 µM	9.3 °C
N#CC1(c2ccc(Nc3nccnc3-c3noc(=O)[nH]3)cc2)CCC1 [Example 42, 1-[4-[[3-(5-oxo-4H-1,2,4-oxadiazol-3-yl)pyrazin-2-yl]amino]phenyl]cyclobutanecarbonitrile]	0.711 µM	5.3 °C
Nc1cnc(Nc2ccc(C(F)(F)F)cc2)c(-c2noc(=O)[nH]2)c1 [Example 45, 3-[5-amino-2-[4-(trifluoromethyl)anilino]-3-pyridyl]-4H-1,2,4-oxadiazol-5-one]	1.35 µM	6 °C
Cc1cc(-c2noc(=O)[nH]2)c(Nc2ccc(C(F)(F)F)cc2)nc1C [Example 47, 3-[5,6-dimethyl-2-[4-(trifluoromethyl)anilino]-3-pyridyl]-4H-1,2,4-oxadiazol-5-one]	0.072 µM	18 °C
O=c1[nH]c(-c2c(Nc3ccc(C(F)(F)F)cc3)ncc3c2CCC3)no1 [Example 49, 3-[3-[4-(trifluoromethyl)anilino]-6,7-dihydro-5H-cyclopenta[c]pyridin-4-yl]-4H-1,2,4-oxadiazol-5-one]	0.649 µM	0.6 °C
O=c1[nH]c(-c2c(OCCO)ccnc2Nc2ccc(C(F)(F)F)cc2)no1 [Example 51, 3-[4-(2-hydroxyethoxy)-2-[4-(trifluoromethyl)anilino]-3-pyridyl]-4H-1,2,4-oxadiazol-5-one]	0.135 µM	5.1 °C
CC(C)(C)Oc1ccnc(Nc2ccc(C(F)(F)F)cc2)c1-c1noc(=O)[nH]1 [Example 53, 3-[4-tert-butoxy-2-[4-(trifluoromethyl)anilino]-3-pyridyl]-4H-1,2,4-oxadiazol-5-one]	0.815 µM	3.7 °C
O=c1[nH]c(-c2c(OCCNCCO)ccnc2Nc2ccc(C(F)(F)F)cc2)no1 [Example 54, 3-[4-[2-(2-hydroxyethylamino)ethoxy]-2-[4-(trifluoromethyl)anilino]-3-pyridyl]-4H-1,2,4-oxadiazol-5-one]	0.357 µM	0.9 °C
O=c1[nH]c(-c2c(OC3CCOCC3)ccnc2Nc2ccc(C(F)(F)F)cc2)no1 [Example 64, 3-[4-tetrahydropyran-4-yloxy-2-[4-(trifluoromethyl)anilino]-3-pyridyl]-4H-1,2,4-oxadiazol-5-one]	0.268 µM	4.2 °C

The remaining lines, values ahead:

IC50 [1]	ΔTm at 7 µM [2]	SMILES
0.039 µM	12.6 °C	O=c1[nH]c(-c2ccccc2Nc2ccc(C(F)(F)F)cc2)no1 [Example 38, 3-[2-[4-(trifluoromethyl)anilino]phenyl]-4H-1,2,4-oxadiazol-5-one]
0.109 µM	13.4 °C	O=c1[nH]c(-c2nccnc2Nc2ccc(C3(C(F)(F)F)CC3)cc2)no1 [Example 40, 3-[3-[4-[1-(trifluoromethyl)cyclopropyl]anilino]pyrazin-2-yl]-4H-1,2,4-oxadiazol-5-one]
6.57 µM	12.5 °C	O=c1[nH]c(-c2nccnc2Nc2ccc(C3CCC3)cc2)no1 [Example 41, 3-[3-(4-cyclobutylanilino)pyrazin-2-yl]-4H-1,2,4-oxadiazol-5-one]
0.93 µM	6.6 °C	O=c1[nH]c(-c2nccnc2Nc2ccc(Cl)cc2)no1 [Example 43, 3-[3-(4-chloroanilino)pyrazin-2-yl]-4H-1,2,4-oxadiazol-5-one]
0.225 µM	11.6 °C	O=c1[nH]c(-c2cc(Cl)cnc2Nc2ccc(C(F)(F)F)cc2)no1 [Example 44, 3-[5-chloro-2-[4-(trifluoromethyl)anilino]-3-pyridyl]-4H-1,2,4-oxadiazol-5-one]
0.407 µM	7.1 °C	CNc1cnc(Nc2ccc(C(F)(F)F)cc2)c(-c2noc(=O)[nH]2)c1 [Example 46, 3-[5-(methylamino)-2-[4-(trifluoromethyl)anilino]-3-pyridyl]-4H-1,2,4-oxadiazol-5-one]
0.507 µM	1.9 °C	O=c1[nH]c(-c2c(OCCO)ccnc2Nc2ccc(Cl)cc2)no1 [Example 48, 3-[2-(4-chloroanilino)-4-(2-hydroxyethoxy)-3-pyridyl]-4H-1,2,4-oxadiazol-5-one]
0.037 µM	12.2 °C	O=c1[nH]c(-c2nccnc2Nc2ccc(S(F)(F)(F)(F)F)cc2)no1 [Example 50, 3-[3-[4-(pentafluoro-λ6-sulfanyl)anilino]pyrazin-2-yl]-4H-1,2,4-oxadiazol-5-one]
0.179 µM	5.1 °C	CC(C)Oc1ccnc(Nc2ccc(C(F)(F)F)cc2)c1-c1noc(=O)[nH]1 [Example 52, 3-[4-isopropoxy-2-[4-(trifluoromethyl)anilino]-3-pyridyl]-4H-1,2,4-oxadiazol-5-one]
0.281 µM	1 °C	NCCOc1ccnc(Nc2ccc(C(F)(F)F)cc2)c1-c1noc(=O)[nH]1 [Example 55, 3-[4-(2-aminoethoxy)-2-[4-(trifluoromethyl)anilino]-3-pyridyl]-4H-1,2,4-oxadiazol-5-one]
0.767 µM	4.3 °C	CC(=O)NCCOc1ccnc(Nc2ccc(C(F)(F)F)cc2)c1-c1noc(=O)[nH]1 [Example 56, N-[2-[[3-(5-oxo-4H-1,2,4-oxadiazol-3-yl)-2-[4-(trifluoromethyl)anilino]-4-pyridyl]oxy]ethyl]acetamide]
0.388 µM	4.1 °C	CS(=O)(=O)NCCOc1ccnc(Nc2ccc(C(F)(F)F)cc2)c1-c1noc(=O)[nH]1 [Example 57, N-[2-[[3-(5-oxo-4H-1,2,4-oxadiazol-3-yl)-2-[4-(trifluoromethyl)anilino]-4-pyridyl]oxy]ethyl]methanesulfonamide]
13.7 µM	3 °C	O=C(O)COc1ccnc(Nc2ccc(C(F)(F)F)cc2)c1-c1noc(=O)[nH]1 [Example 58, 2-[[3-(5-oxo-4H-1,2,4-oxadiazol-3-yl)-2-[4-(trifluoromethyl)anilino]-4-pyridyl]oxy]acetic acid]
2.75 µM	6.7 °C	NC(=O)COc1ccnc(Nc2ccc(C(F)(F)F)cc2)c1-c1noc(=O)[nH]1 [Example 59, 2-[[3-(5-oxo-4H-1,2,4-oxadiazol-3-yl)-2-[4-(trifluoromethyl)anilino]-4-pyridyl]oxy]acetamide]
0.465 µM	1.3 °C	O=c1[nH]c(-c2c(OCCN3CCOCC3)ccnc2Nc2ccc(C(F)(F)F)cc2)no1 [Example 60, 3-[4-(2-morpholinoethoxy)-2-[4-(trifluoromethyl)anilino]-3-pyridyl]-4H-1,2,4-oxadiazol-5-one]
0.147 µM	2.9 °C	O=c1[nH]c(-c2c(OCCc3ccccn3)ccnc2Nc2ccc(C(F)(F)F)cc2)no1 [Example 61, 3-[4-[2-(2-pyridyl)ethoxy]-2-[4-(trifluoromethyl)anilino]-3-pyridyl]-4H-1,2,4-oxadiazol-5-one]
0.061 µM	5.5 °C	COCCOc1ccnc(Nc2ccc(C(F)(F)F)cc2)c1-c1noc(=O)[nH]1 [Example 62, 3-[4-(2-methoxyethoxy)-2-[4-(trifluoromethyl)anilino]-3-pyridyl]-4H-1,2,4-oxadiazol-5-one]
1.55 µM	3.4 °C	CC1(COc2ccnc(Nc3ccc(C(F)(F)F)cc3)c2-c2noc(=O)[nH]2)CC1 [Example 63, 3-[4-[(1-methylcyclopropyl)methoxy]-2-[4-(trifluoromethyl)anilino]-3-pyridyl]-4H-1,2,4-oxadiazol-5-one]
